According to US11613556B2, “Oxysterols and methods of use thereof” (Sage Therapeutics, Inc., priority 2016, dated 2023):

Molecular target: glutamate-activated channels of the GRIN1/2A subtype stably transfected in HEK 293 cells (Homo sapiens (Human), UniProt Q05586+Q12879)
Test: Automated patch-clamp system (QPatch HTX), percent potentiation at 1 μM
Assay type: cell-based
Settings: HEK293, 1 μM test compound, 300 μM NMDA with 8 μM glycine, HEK 293 GRIN1/2A, read-out: GluN2A PCA % potentiation at 1 μM
Procedure: NMDA potentiation in mammalian cells which expressed NMDA receptors was assessed using the automatic patch-clamp system can be used determine the NAM activity of compounds as described below. An whole cell patch-clamp system can be used determine the PAM activity of compounds as described below.
Automated Patch-Clamp System (OPatch HTX):
In this study, HEK 293 cells stably transfected with glutamate-activated channels of the GRIN1/2A subtype will be used together with submaximal NMDA concentrations (300 μM NMDA, co-application with 8 μM Glycine) to investigate the negative allosteric modulation of the test compounds.
In general, cells will be passaged at a confluence of about 80% to […]. For electrophysiological measurements cells will be harvested at a confluence of about 80% to 90% from sterile culture flasks containing culture complete medium. Cells will be transferred as suspension in PBS to the QPatch 16X or QPatch HTX system to the centrifuge/washer directly.
Standard Laboratory Conditions: Cells will be incubated at 37° C. in a humidified atmosphere with 5% CO2 (rel. humidity about 95%).
Culture media: The cells will be continuously maintained in and passaged in sterile culture flasks containing a 1:1 mixture of Dulbecco's modified eagle medium and nutrient mixture F-12 (D-MEM/F-12 1×, liquid, with L-Glutamine) supplemented with 10% fetal bovine serum, 1% Penicillin/Streptomycin solution, and 50 μM AP-5 blocker.
Antibiotics: The complete medium as indicated above is supplemented with 100 μg/mL hygromycin, 15 μg/mL blasticidin and 1 μg/mL puromycin.
Induction of Expression: 2.5 μg/mL tetracycline is added 24 h before start of experiments.
Dose levels are in terms of test compounds, as supplied. Vehicle will be added to achieve a stock concentration of 10 mM (storage at −10° C. to −30° C.). A further stock solutions of 1.0 mM will be prepared in DMSO. Details of stock solution usage (thawing, dose formulations) will be documented in the raw data. The time period of stock solution usage will be detailed in the report.
Test Compound Concentrations
One test concentration of 1.0 μM will be tested.
All test solutions will be prepared by diluting the stock solutions with either Mg-free bath solution only or Mg-free bath solution containing NMDA (300 μM) and glycine (8.0 μM) shortly prior to the electrophysiological experiments and kept at room temperature (19° C. to 30° C.) when in use. 0.1% DMSO will be used as vehicle.
Frequency of preparation: For each test concentration, fresh solutions of test compounds will be prepared every day.
Stability of dose formulation: All preparation times will be documented in the raw data. Any observations regarding instability of test compounds will be mentioned in the raw data.
Storage of dose formulation: On the day of experimentation dose formulations will be maintained at room temperature (19° C. to 30° C.) when in use.
For preparing the experiments and for formation of the giga-ohm-seal, the following standard bath solution will be used:
Sodium Chloride: 137 mM; Potassium Chloride: 4 mM; Calcium Chloride: 1.8 mM; Magnesium Chloride: 1 mM; HEPES: 10 mM; D-Glucose: 10 mM; Cremophor: 0.02%; pH (NaOH): 7.4
The 1× bath solution will be prepared by diluting 10× bath solution without Glucose and 100× Glucose solution with water at least every 7 days. Both stock solutions have been prepared prior to the experimental start of the present study and stored at 1° C. to 9° C. (10× bath solution) or −10° C. to −30° (100× Glucose solution). The batch number(s) of the bath solution(s) used in the experiments will be documented in the raw data. When in use, the 1× bath solution will be kept at room temperature (19° C. to 30° C.). When not in use, the 1× bath solution will be stored at 1° C. to 9° C.
After the giga-seal was formed the following Mg-free bath solution will be used:
Sodium Chloride: 137 mM; Potassium Chloride: 4 mM; Calcium Chloride; 2.8 mM; HEPES: 10 mM; D-Glucose: 10 mM; Cremophor: 0.02%; pH (NaOH): 7.4 […]

Chain of glutamate-activated channels of the GRIN1/2A subtype stably transfected in HEK 293 cells (Q12879 whole entry, looked up, other chains not shown): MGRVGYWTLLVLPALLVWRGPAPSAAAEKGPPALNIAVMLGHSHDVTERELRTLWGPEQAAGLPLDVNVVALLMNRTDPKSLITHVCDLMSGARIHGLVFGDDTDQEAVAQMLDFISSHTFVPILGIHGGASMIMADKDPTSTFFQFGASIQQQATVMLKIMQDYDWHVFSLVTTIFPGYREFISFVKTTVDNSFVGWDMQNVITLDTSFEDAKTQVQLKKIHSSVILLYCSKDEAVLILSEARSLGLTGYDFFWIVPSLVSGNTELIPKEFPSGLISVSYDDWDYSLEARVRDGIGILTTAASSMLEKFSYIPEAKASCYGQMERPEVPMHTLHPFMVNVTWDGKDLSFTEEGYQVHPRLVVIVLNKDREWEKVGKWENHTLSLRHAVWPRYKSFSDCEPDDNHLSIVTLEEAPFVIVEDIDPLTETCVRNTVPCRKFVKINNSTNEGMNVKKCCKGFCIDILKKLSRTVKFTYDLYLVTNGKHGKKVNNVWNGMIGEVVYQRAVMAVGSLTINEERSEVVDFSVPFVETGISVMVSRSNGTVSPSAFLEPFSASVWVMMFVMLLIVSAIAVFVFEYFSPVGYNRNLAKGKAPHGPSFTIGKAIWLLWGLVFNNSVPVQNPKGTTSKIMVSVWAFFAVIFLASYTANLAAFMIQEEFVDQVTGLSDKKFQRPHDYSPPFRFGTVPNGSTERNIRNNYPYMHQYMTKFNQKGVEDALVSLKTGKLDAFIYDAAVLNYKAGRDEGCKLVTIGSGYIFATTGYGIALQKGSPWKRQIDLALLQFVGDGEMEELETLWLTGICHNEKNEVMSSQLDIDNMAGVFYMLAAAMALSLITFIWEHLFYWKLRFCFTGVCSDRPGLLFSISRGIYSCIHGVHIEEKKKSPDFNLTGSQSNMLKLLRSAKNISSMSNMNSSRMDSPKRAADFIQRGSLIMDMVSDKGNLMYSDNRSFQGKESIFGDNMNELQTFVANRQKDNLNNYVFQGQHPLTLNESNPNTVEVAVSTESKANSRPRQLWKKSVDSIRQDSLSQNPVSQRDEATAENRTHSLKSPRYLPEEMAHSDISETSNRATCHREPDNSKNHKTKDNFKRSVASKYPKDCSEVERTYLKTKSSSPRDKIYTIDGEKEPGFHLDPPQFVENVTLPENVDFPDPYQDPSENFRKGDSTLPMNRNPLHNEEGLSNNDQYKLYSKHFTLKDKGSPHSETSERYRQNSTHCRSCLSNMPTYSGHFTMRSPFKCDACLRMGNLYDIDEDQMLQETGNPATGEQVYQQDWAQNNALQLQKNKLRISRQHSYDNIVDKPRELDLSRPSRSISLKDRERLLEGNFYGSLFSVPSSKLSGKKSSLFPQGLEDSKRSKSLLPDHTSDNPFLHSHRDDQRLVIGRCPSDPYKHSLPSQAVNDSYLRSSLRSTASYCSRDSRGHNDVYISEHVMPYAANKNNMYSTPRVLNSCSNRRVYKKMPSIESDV

Row | Compound | activation at 1 µM
1 | CC[C@]1(O)CC[C@@]2(C)C(=CC[C@H]3[C@@H]4CC[C@H]([C@H](C)[C@@H](O)CC5(C)COC5)[C@@]4(C)CC[C@@H]32)C1 [Compound 70, (3S,8S,9S,10R,13S,14S,17R)-3-ethyl-17-((2S,3S)-3-hydroxy-4-(3-methyloxetan-3-yl)butan-2-yl)-10,13-dimethyl-2,3,4,7,8,9,10,11,12,13,14,15,16,17-tetradecahydro-1H-cyclopenta[a]phenanthren-3-ol] | -40 to -10%
2 | CC[C@]1(O)CC[C@@]2(C)[C@@H](CC[C@@H]3[C@@H]2CC[C@]2(C)[C@@H]([C@H](C)[C@@H](O)c4cccnc4)CC[C@@H]32)C1 [Compound 7, (3S,5S,8R,9S,10S,13S,14S,17R)-3-ethyl-17-((1R,2S)-1-hydroxy-1-(pyridin-3-yl)propan-2-yl)-10,13-dimethylhexadecahydro-1H-cyclopenta[a]phenanthren-3-ol] | -10 to 10%
3 | CC[C@]1(O)CC[C@@]2(C)[C@H](CC[C@@H]3[C@@H]2CC[C@]2(C)[C@@H]([C@H](C)[C@@H](O)C(F)(F)F)CC[C@@H]32)C1 [Compound 43, (3S,5R,8R,9S,10S,13S,14S,17R)-3-ethyl-10,13-dimethyl-17-((2S,3R)-4,4,4-trifluoro-3-hydroxybutan-2-yl)hexadecahydro-1H-cyclopenta[a]phenanthren-3-ol] | < -40%
4 | COC[C@]1(O)CC[C@H]2[C@H](CC[C@@H]3[C@@H]2CC[C@]2(C)[C@@H]([C@H](C)[C@@H](O)C(F)(F)F)CC[C@@H]32)C1 [Compound 45, (3S,5R,8R,9R,10S,13S,14S,17R)-3-(methoxymethyl)-13-methyl-17-((2S,3R)-4,4,4-trifluoro-3-hydroxybutan-2-yl)hexadecahydro-1H-cyclopenta[a]phenanthren-3-ol] | -40 to -10%
5 | CC[C@]1(O)CC[C@@]2(C)[C@H](CC[C@@H]3[C@@H]2CC[C@]2(C)[C@@H]([C@H](C)[C@@H](O)CCC(C)C)CC[C@@H]32)C1 [Compound 64, (3S,5R,8R,9S,10S,13S,14S,17R)-3-ethyl-17-((2S,3S)-3-hydroxy-6-methylheptan-2-yl)-10,13-dimethylhexadecahydro-1H-cyclopenta[a]phenanthren-3-ol] | -40 to -10%
6 | CC[C@]1(O)CC[C@@]2(C)[C@H](CC[C@@H]3[C@@H]2CC[C@]2(C)[C@@H]([C@H](C)[C@H](O)CCC(C)(C)C)CC[C@@H]32)C1 [Compound 15, (3S,5R,8R,9S,10S,13S,14S,17R)-3-ethyl-17-((2S,3R)-3-hydroxy-6,6-dimethylheptan-2-yl)-10,13-dimethylhexadecahydro-1H-cyclopenta[a]phenanthren-3-ol] | -40 to -10%
7 | COC[C@]1(O)CC[C@H]2[C@H](CC[C@@H]3[C@@H]2CC[C@]2(C)[C@@H]([C@H](C)[C@H](O)C(F)(F)F)CC[C@@H]32)C1 [Compound 48, (3S,5R,8R,9R,10S,13S,14S,17R)-3-(methoxymethyl)-13-methyl-17-((2S,3S)-4,4,4-trifluoro-3-hydroxybutan-2-yl)hexadecahydro-1H-cyclopenta[a]phenanthren-3-ol] | -40 to -10%
8 | CC[C@]1(O)CC[C@@]2(C)[C@@H](CC[C@@H]3[C@@H]2CC[C@]2(C)[C@@H]([C@H](C)[C@@H](O)C4CC4)CC[C@@H]32)C1 [Compound 10, (3S,5S,8R,9S,10S,13S,14S,17R)-17-((1S,2S)-1-cyclopropyl-1-hydroxypropan-2-yl)-3-ethyl-10,13-dimethylhexadecahydro-1H-cyclopenta[a]phenanthren-3-ol] | < -40%
9 | COC[C@]1(O)CC[C@@]2(C)[C@@H](CC[C@@H]3[C@@H]2CC[C@]2(C)[C@@H]([C@H](C)[C@H](O)CCC(C)C)CC[C@@H]32)C1 [Compound 2, (3S,5S,8R,9S,10S,13S,14S,17R)-17-((2S,3R)-3-hydroxy-6-methylheptan-2-yl)-3-(methoxymethyl)-10,13-dimethylhexadecahydro-1H-cyclopenta[a]phenanthren-3-ol] | < -40%
10 | CC(C)CC[C@@H](O)[C@@H](C)[C@H]1CC[C@H]2[C@@H]3CC=C4C[C@@](C)(O)CC[C@@H]4[C@H]3CC[C@]12C [Compound 83, (3S,8R,9S,10R,13S,14S,17R)-17-((2S,3R)-3-hydroxy-6-methylheptan-2-yl)-3,13-dimethyl-2,3,4,7,8,9,10,11,12,13,14,15,16,17-tetradecahydro-1H-cyclopenta[a]phenanthren-3-ol] | -40 to -10%
11 | CC[C@]1(O)CC[C@@]2(C)[C@@H](CC[C@@H]3[C@@H]2CC[C@]2(C)[C@@H]([C@H](C)[C@H](O)C4CC4)CC[C@@H]32)C1 [Compound 90, (3S,5S,8R,9S,10S,13S,14S,17R)-17-((1R,2S)-1-cyclopropyl-1-hydroxypropan-2-yl)-3-ethyl-10,13-dimethylhexadecahydro-1H-cyclopenta[a]phenanthren-3-ol] | -10 to 10%
12 | CC[C@]1(O)CC[C@@]2(C)[C@@H](CC[C@@H]3[C@@H]2CC[C@]2(C)[C@@H]([C@H](C)[C@H](O)C(F)(F)F)CC[C@@H]32)C1 [Compound 11, (3S,5S,8R,9S,10S,13S,14S,17R)-3-ethyl-10,13-dimethyl-17-((2S,3S)-4,4,4-trifluoro-3-hydroxybutan-2-yl)hexadecahydro-1H-cyclopenta[a]phenanthren-3-ol] | < -40%
13 | C[C@H]([C@@H](O)C(F)(F)F)[C@H]1CC[C@H]2[C@@H]3CC[C@@H]4C[C@@](C)(O)CC[C@]4(C)[C@H]3CC[C@]12C [Compound 57, (3S,5R,8R,9S,10S,13S,14S,17R)-3,10,13-trimethyl-17-((2S,3R)-4,4,4-trifluoro-3-hydroxybutan-2-yl)hexadecahydro-1H-cyclopenta[a]phenanthren-3-ol] | < -40%
14 | CC[C@]1(O)CC[C@@]2(C)[C@@H](CC[C@@H]3[C@@H]2CC[C@]2(C)[C@@H]([C@H](C)[C@@H](O)C(C)C)CC[C@@H]32)C1 [Compound 65, (3S,5S,8R,9S,10S,13S,14S,17R)-3-ethyl-17-((2S,3S)-3-hydroxy-4-methylpentan-2-yl)-10,13-dimethylhexadecahydro-1H-cyclopenta[a]phenanthren-3-ol] | -40 to -10%
15 | CC(C)CC[C@H](O)[C@@H](C)[C@H]1CC[C@H]2[C@@H]3CC[C@H]4C[C@@](C)(O)CC[C@@H]4[C@H]3CC[C@]12C [Compound 74, (3S,5S,8R,9R,10S,13S,14S,17R)-17-((2S,3S)-3-hydroxy-6-methylheptan-2-yl)-3,13-dimethylhexadecahydro-1H-cyclopenta[a]phenanthren-3-ol] | -40 to -10%
16 | COC[C@]1(O)CC[C@@]2(C)C(=CC[C@H]3[C@@H]4CC[C@H]([C@H](C)[C@@H](O)C(F)(F)F)[C@@]4(C)CC[C@@H]32)C1 [Compound 95, (3S,8S,9S,10R,13S,14S,17R)-3-(methoxymethyl)-10,13-dimethyl-17-((2S,3R)-4,4,4-trifluoro-3-hydroxybutan-2-yl)-2,3,4,7,8,9,10,11,12,13,14,15,16,17-tetradecahydro-1H-cyclopenta[a]phenanthren-3-ol] | < -40%
